# Assay results published in US20240224994A1, “INSECT REPELLANT FORMULATION AND METHOD OF USING SAME” (United Industries Corporation, priority 2021, published 2024).
# Tested on: Deer Ticks, Ixodes ricinus
# Test: Efficacy of nootkatone formulations against ticks on human forearm skin (complete protection time)
# Type: in vivo
# Conditions: FIG. 1; human skin test
# Protocol: The objective of the study was estimate the complete protection time (CPT) of the various repellent formulations against ticks. Complete protection time (CPT) was measured as the length of time from initial application to the First Confirmed Crossing (FCC).
# A number of 32 volunteers were selected based on signing of informed consent form and passing the sensitivity test, 24-48 hours before the initiation of the experiment. The volunteers were briefed about the experiment in detail prior to signing the consent form. Test volunteers were instructed to avoid alcohol, tobacco, caffeine, and fragrance products (e.g., perfume, cologne, hair spray, lotion, etc.) at least for 12 hours before, and during the test.
# The test substance/positive control (liquid) was applied at 1 ml/600 cm^2±10% deviation. […] The treatment area was calculated by measuring the circumference (cm) of the wrist (B), the circumference (cm) at the elbow-cubital fossa (C) when the arm is extended, and the distance (cm) from the elbow to the wrist (D) The surface area (in cm^2) of skin was calculated by: […]
# Fresh ticks were exposed to the treated area one at a time, at regular intervals of 30 minutes until the first crossing or observation were recorded as “not repelled.” The cycle continues until efficacy failure or the end of the study, whichever occurs first. […]
smiles,measurement,value
OCc1ccccc1 [benzyl alcohol],effect of ingredient on CPT of the compositions,effective in prolonging the CPT
